Test system: hepatic mRNA expression in STAM™ mice
Assay: Murine STAM model of NASH-HCC: hepatic gene expression by quantitative RT-PCR
Type: in vivo, mouse
Experimental: A study was performed to evaluate the efficacy of gemcabene calcium salt hydrate Crystal Form 1 having a PSD90 of 52 μm as measured by laser light diffraction, in treating non-alcoholic steatosis hepatitis (NASH) in the murine STAM™ model of NASH-HCC.
Briefly, two-day old neonatal C57BL/6 male mice were administered low-dose streptozotocin (STZ), and were subsequently fed a HFC diet from 4 weeks of age. In this model, the mice typically develop liver steatosis and diabetes, reaching steatohepatitis within 3 weeks, followed by cirrhosis within 8 weeks, and carcinoma within 16 weeks. In the current study, mice were administered daily oral gemcabene calcium salt hydrate Crystal Form 1 starting at week 6 of age and were sacrificed at week 9. […] These STAM™ groups were orally administered from week 6 one of the following: water-vehicle, gemcabene calcium salt hydrate Crystal Form 1 at 30, 100 and 300 mg/kg daily, or telmisartan ([…]®) 10 mg/kg daily. […] All groups were sacrificed at week 9. Vehicle, gemcabene calcium salt hydrate Crystal Form 1, or telmisartan were administered by oral gavage once daily.
Various gene expression markers of liver metabolism were evaluated by Real-Time PCR (RT-PCR) in all mouse groups. Total RNA was extracted from liver samples using RNAiso (Takara Bio, Japan) according to the manufacturer's instructions. […] of RNA was reverse-transcribed using a reaction mixture containing 4.4 mM MgCl2 (F. Hoffmann-La Roche, Switzerland), 40 U RNase inhibitor (Toyobo, Japan), 0.5 mM dNTP (Promega, USA), 6.28 μM random hexamer (Promega), 5×first strand buffer (Promega), 10 mM dithiothreitol (Invitrogen, USA) and 200 U MMLV-RT (Invitrogen) in a final volume of 20 μL. The reaction was carried out for 1 hour at 37° C., followed by 5 minutes at 99° C. Real-time PCR was performed using real-time PCR DICE and SYBR premix Taq (Takara Bio). To calculate the relative mRNA expression level, the expression of each gene was normalized to that of reference gene 36B4 (gene symbol: RplpO). Information of PCR-primer sets is described in Tables 37A-37C. Statistical analyses were performed using the Bonferroni Multiple Comparison Test on GraphPad Prism 6 (GraphPad Software Inc., USA). P values <0.05 were considered statistically significant. Results are expressed as mean±SD.
In order to calculate the relative mRNA expression level, the expression of each gene was normalized to that of the reference gene 36B4 (gene symbol: RplpO). The gene expression levels were measured by quantitative RT-PCR. Results were normalized with values for the vehicle-treated normal group. […] Gemcabene calcium salt hydrate Crystal Form 1 (PSD90=52 μm) modulated the mRNA expression of many hepatic genes that play a significant role in the liver homeostasis and injury.

[1] = gemcabene Form 1 100 mg/kg, telmisartan 10 mg/kg
[2] = vs Vehicle in NASH group, gemcabene Form 1 30 mg/kg
[3] = vs Vehicle in NASH group, gemcabene Form 1 100 and 300 mg/kg
[4] = vs Vehicle in NASH group, gemcabene Form 1 100 and 300 mg/kg, telmisartan 10 mg/kg

CC(C)(CCCCOCCCCC(C)(C)C(=O)O)C(=O)O.[Ca] [6-(5-Carboxy-5-methyl-hexyloxy)-2,2-dimethylhexanoic acid calcium]
LDL receptor gene expression (STAM mice): no effect | hepatic ApoC-III mRNA (STAM mice): significantly downregulated | MMP-2 mRNA expression (relative, mean±SD) (gemcabene Form 1 100 mg/kg): 0.5±0.2 | NF-κB mRNA expression (relative, mean±SD) (gemcabene Form 1 100 mg/kg): 0.9±0.1 | Sulf-2 mRNA expression (relative, mean±SD) (gemcabene Form 1 100 mg/kg): 3.8±0.7 | TIMP-1 mRNA expression (relative, mean±SD) (gemcabene Form 1 100 mg/kg): 3.8±1.6 | TNF-α mRNA expression (relative to vehicle-treated normal group, mean±SD) (gemcabene Form 1 100 mg/kg): 2.0±0.8 | ACC-1 mRNA expression (relative, mean±SD) [1]: 0.7±0.1 | ADH-4 mRNA expression (relative, mean±SD) [1]: 0.6±0.1 | CCR2 mRNA expression (relative, mean±SD) [1]: 1.6±0.4 | CCR5 mRNA expression (relative, mean±SD) [1]: 1.4±0.3 | CRP mRNA levels (relative, mean±SD) [1]: 0.6±0.1 | MCP-1 mRNA expression (relative, mean±SD) [1]: 1.7±0.7 | MIP-1β mRNA levels (relative, mean±SD) [1]: 2.3±0.9 | ADH-4 mRNA expression (relative, mean±SD) (gemcabene Form 1 300 mg/kg): 0.5±0.1 | CCR2 mRNA expression (relative, mean±SD) (gemcabene Form 1 300 mg/kg): 1.7±0.7 | CCR5 mRNA expression (relative, mean±SD) (gemcabene Form 1 300 mg/kg): 1.3±0.3 | CRP mRNA levels (relative, mean±SD) (gemcabene Form 1 300 mg/kg): 0.5±0.1 | MCP-1 mRNA expression (relative, mean±SD) (gemcabene Form 1 300 mg/kg): 1.6±0.7 | MIP-1β mRNA levels (relative, mean±SD) (gemcabene Form 1 300 mg/kg): 2.8±1.4 | MMP-2 mRNA expression (relative, mean±SD) (gemcabene Form 1 300 mg/kg): 0.9±0.2 | NF-κB mRNA expression (relative, mean±SD) (gemcabene Form 1 300 mg/kg): 0.8±0.1 | Sulf-2 mRNA expression (relative, mean±SD) (gemcabene Form 1 300 mg/kg): 3.3±0.9 | TIMP-1 mRNA expression (relative, mean±SD) (gemcabene Form 1 300 mg/kg): 4.4±2.1 | TNF-α mRNA expression (relative to vehicle-treated normal group, mean±SD) (gemcabene Form 1 300 mg/kg): 1.9±0.7 | ANGPTL4 mRNA expression level [2]: no significant difference | IL-6 mRNA expression level [2]: no significant difference | Fetuin-A mRNA expression level (vs Vehicle in NASH group, gemcabene Form 1 100 mg/kg): significant down-regulation | SCD mRNA expression level (vs Vehicle in NASH group, gemcabene Form 1 300 mg/kg): significant up-regulation | hepatic LPL mRNA expression levels (vs Vehicle in NASH group, gemcabene Form 1 30, 100 and 300 mg/kg, telmisartan 10 mg/kg): significant up-regulations | ANGPTL3 mRNA expression levels [3]: significant down-regulations | CXCL1/KC mRNA expression levels [3]: marked down-regulation | ANGPTL4 mRNA expression levels [4]: significant down-regulations | IL-6 mRNA expression level [4]: significant down-regulations
